Assay results published in publication PMC11868595, “Safety, pharmacokinetics and efficacy of HA121-28 in patients with advanced solid tumors and RET fusion-positive non-small-cell lung cancer: a multicenter, open-label, single-arm phase 1/2 trial” (Signal Transduction and Targeted Therapy, 2025).

Tested on: patients with RET fusion-positive NSCLC
Test: Phase 2 trial: adverse events (CTCAE)
Format: in vivo, human
From the text: The phase 2 trial was still ongoing. It was a single-arm, multicenter, open-label, nonrandomized study to assess the efficacy and safety of HA121-28 in RET-fusion-positive NSCLC.
Patients aged 18–75 years (inclusive) who had unresectable locally advanced or metastatic NSCLC through histologically or cytologically examination were enrolled. Patients were also required to have documented RET fusions centrally examined by next-generation sequencing in certified laboratories but without other oncogenic alterations. Had progression on at least one previous line of standard treatment but have no previous use of other anti-RET inhibitors. The complete lists of inclusion and exclusion criteria of phase 1 and phase 2 are provided in both protocols (in Supplement).
In phase 1 trial, during the dose-escalation part, patients first administered HA121-28 in a single ascending dose under the fasted state, then followed up for seven days. Then, patients received ascending doses of HA121-28 (q.d.) on a 21-day on and 7-day off treatment scheme for a 28-day cycle. For patients deemed beneficial from the treatment by investigators, treatment could remain until disease progression, or they discontinued from the study. In the dose-expansion part of phase 1, as well as phase 2, patients received HA121-28 (q.d.) at the selected doses on a 21-day on and 7-day off treatment scheme until disease progression, or they discontinued from the study.
Treatment-emergent adverse events (TEAEs) were documented during the entire study period. The predefined adverse event of special interest (AESI) was ≥ grade 3 prolonged QT interval. Tumor imaging was performed using contrast-enhanced computed tomography or magnetic resonance imaging at screening, Day 28 of the first cycle, then approximately every eight weeks till the end of the study for phase 1; in phase 2, imaging was scheduled at screening, and every eight weeks during the first 40 weeks, followed by every 12 weeks for the rest of the study period. RECIST 1.1 was used by the independent review committee or investigators for assessment of tumor response. After the original assessment, a repeated assessment was required around four weeks later to confirm a complete or partial response.
The primary endpoint of phase 2 was the independent review committee evaluated ORR using RECIST 1.1. The secondary endpoints included investigators assessed ORR; DCR, PFS, and DOR by the independent review committee and investigators; overall survival and TEAEs. Each TEAE was graded according to CTCAE version 5.0 and coded by MedDRA (version 24.0). The phase 2 trial is ongoing; not all endpoints are reported in this paper.

[1] = Phase 2 study, patient 3 with Grade 3 QTc prolongation
[2] = Phase 2 study, patient 4 with Grade 3 QTc prolongation
[3] = Phase 2 study, patient 5 with Grade 3 QTc prolongation
[4] = Phase 2 study, patient 7 with Grade 3 QTc prolongation
[5] = Phase 2 study, patient 8 with Grade 3 QTc prolongation

COc1cc2c(Nc3ccc(Br)cc3F)ncnc2cc1OCCCCN(C)C.Cl.Cl [HA121-28, N-(4-bromo-2-fluorophenyl)-7-(4-(dimethylamino)butoxy)-6-methoxy quinazolin-4-amine dihydrochloride]
Serious TEAE: Pneumonia (Phase 2, 450 mg (N=48)): 1 (2.1) No. (%)
Serious TEAE: Pneumonitis (Phase 2, 450 mg (N=48)): 1 (2.1) No. (%)
Serious TEAE: Prolonged QT interval (Phase 2, 450 mg (N=48)): 0 No. (%)
Serious TEAE: Pulmonary embolism (Phase 2, 450 mg (N=48)): 1 (2.1) No. (%)
Serious TEAE: Pyrexia (Phase 2, 450 mg (N=48)): 1 (2.1) No. (%)
Serious TEAE: Rash (Phase 2, 450 mg (N=48)): 2 (4.2) No. (%)
Serious TEAE: Rectal hemorrhage (Phase 2, 450 mg (N=48)): 0 No. (%)
Serious TEAE: Respiratory failure (Phase 2, 450 mg (N=48)): 1 (2.1) No. (%)
Serious TEAE: Seizure (Phase 2, 450 mg (N=48)): 0 No. (%)
Serious TEAE: Septic shock (Phase 2, 450 mg (N=48)): 1 (2.1) No. (%)
Serious TEAE: Sudden cardiac arrest (Phase 2, 450 mg (N=48)): 0 No. (%)
Serious TEAE: Sudden death (Phase 2, 450 mg (N=48)): 0 No. (%)
Serious TEAE: Upper respiratory tract infection (Phase 2, 450 mg (N=48)): 0 No. (%)
Serious TEAE: Ventricular tachycardia (Phase 2, 450 mg (N=48)): 0 No. (%)
Serious TEAE: Vomiting (Phase 2, 450 mg (N=48)): 0 No. (%)
Serious TEAE: Weight loss (Phase 2, 450 mg (N=48)): 0 No. (%)
Serious TRAE: ALT increased (Phase 2, 450 mg (N=48)): 1 (2.1) No. (%)
Serious TRAE: AST increased (Phase 2, 450 mg (N=48)): 1 (2.1) No. (%)
Serious TRAE: Abdominal Pain (Phase 2, 450 mg (N=48)): 1 (2.1) No. (%)
Serious TRAE: Abdominal distension (Phase 2, 450 mg (N=48)): 0 No. (%)
Serious TRAE: Acute cholecystitis (Phase 2, 450 mg (N=48)): 0 No. (%)
Serious TRAE: Acute pancreatitis (Phase 2, 450 mg (N=48)): 0 No. (%)
Serious TRAE: Anal abscess (Phase 2, 450 mg (N=48)): 0 No. (%)
Serious TRAE: Any (Phase 2, 450 mg (N=48)): 9 (18.8) No. (%)
Serious TRAE: Aortic intramural hematoma (Phase 2, 450 mg (N=48)): 0 No. (%)
Serious TRAE: Arrhythmia (Phase 2, 450 mg (N=48)): 0 No. (%)
Serious TRAE: Blood bilirubin increased (Phase 2, 450 mg (N=48)): 0 No. (%)
Serious TRAE: Blood creatinine increased (Phase 2, 450 mg (N=48)): 0 No. (%)
Serious TRAE: COVID-19 (Phase 2, 450 mg (N=48)): 0 No. (%)
Serious TRAE: Cardiac tamponade (Phase 2, 450 mg (N=48)): 0 No. (%)
Serious TRAE: Coronary artery atherosclerosis (Phase 2, 450 mg (N=48)): 0 No. (%)
Serious TRAE: Death (Phase 2, 450 mg (N=48)): 0 No. (%)
Serious TRAE: Dermatitis allergic (Phase 2, 450 mg (N=48)): 1 (2.1) No. (%)
Serious TRAE: Diarrhea (Phase 2, 450 mg (N=48)): 1 (2.1) No. (%)
Serious TRAE: Drug eruption (Phase 2, 450 mg (N=48)): 0 No. (%)
Serious TRAE: Dyspnea (Phase 2, 450 mg (N=48)): 0 No. (%)
Serious TRAE: Embolism (Phase 2, 450 mg (N=48)): 0 No. (%)
Serious TRAE: Erythema multiforme (Phase 2, 450 mg (N=48)): 1 (2.1) No. (%)
Serious TRAE: Headache (Phase 2, 450 mg (N=48)): 0 No. (%)
Serious TRAE: Hemoptysis (Phase 2, 450 mg (N=48)): 0 No. (%)
Serious TRAE: Hydronephrosis (Phase 2, 450 mg (N=48)): 0 No. (%)
Serious TRAE: Hypertension (Phase 2, 450 mg (N=48)): 2 (4.2) No. (%)
Serious TRAE: Hypoalbuminemia (Phase 2, 450 mg (N=48)): 0 No. (%)
Serious TRAE: Intestinal obstruction (Phase 2, 450 mg (N=48)): 0 No. (%)
Serious TRAE: Intra-abdominal fluid collection (Phase 2, 450 mg (N=48)): 0 No. (%)
Serious TRAE: Intracranial tumor hemorrhage (Phase 2, 450 mg (N=48)): 0 No. (%)
Serious TRAE: Liver injury (Phase 2, 450 mg (N=48)): 0 No. (%)
Serious TRAE: Lung adenocarcinoma (Phase 2, 450 mg (N=48)): 0 No. (%)
Serious TRAE: Malignant neoplasm progression (Phase 2, 450 mg (N=48)): 0 No. (%)
Serious TRAE: Multiple organ dysfunction syndrome (Phase 2, 450 mg (N=48)): 0 No. (%)
Serious TRAE: Nausea (Phase 2, 450 mg (N=48)): 0 No. (%)
Serious TRAE: Nephrolithiasis (Phase 2, 450 mg (N=48)): 0 No. (%)
Serious TRAE: Platelet counts decreased (Phase 2, 450 mg (N=48)): 0 No. (%)
Serious TRAE: Pleural effusion (Phase 2, 450 mg (N=48)): 0 No. (%)
Serious TRAE: Pneumonia (Phase 2, 450 mg (N=48)): 0 No. (%)
Serious TRAE: Pneumonitis (Phase 2, 450 mg (N=48)): 0 No. (%)
Serious TRAE: Prolonged QT interval (Phase 2, 450 mg (N=48)): 0 No. (%)
Serious TRAE: Pulmonary embolism (Phase 2, 450 mg (N=48)): 1 (2.1) No. (%)
Serious TRAE: Pyrexia (Phase 2, 450 mg (N=48)): 0 No. (%)
Serious TRAE: Rash (Phase 2, 450 mg (N=48)): 2 (4.2) No. (%)
Serious TRAE: Rectal hemorrhage (Phase 2, 450 mg (N=48)): 0 No. (%)
Serious TRAE: Respiratory failure (Phase 2, 450 mg (N=48)): 0 No. (%)
Serious TRAE: Seizure (Phase 2, 450 mg (N=48)): 0 No. (%)
Serious TRAE: Septic shock (Phase 2, 450 mg (N=48)): 0 No. (%)
Serious TRAE: Sudden cardiac arrest (Phase 2, 450 mg (N=48)): 0 No. (%)
Serious TRAE: Sudden death (Phase 2, 450 mg (N=48)): 0 No. (%)
Serious TRAE: Upper respiratory tract infection (Phase 2, 450 mg (N=48)): 0 No. (%)
Serious TRAE: Ventricular tachycardia (Phase 2, 450 mg (N=48)): 0 No. (%)
Serious TRAE: Vomiting (Phase 2, 450 mg (N=48)): 0 No. (%)
Serious TRAE: Weight loss (Phase 2, 450 mg (N=48)): 0 No. (%)
Grade of cardiac TEAE: sinus bradycardia (Phase 2 study, patient 1 with Grade 3 QTc prolongation): 1
Grade of cardiac TEAE: cronary arteriosclerosis (Phase 2 study, patient 2 with Grade 3 QTc prolongation): 2
Grade of cardiac TEAE: Supraventricular extrasystoles [1]: 1
Grade of cardiac TEAE: arhythmia [1]: 1
Grade of cardiac TEAE: sinus bradycardia [1]: 1
Grade of cardiac TEAE: ventricular extrasystole [1]: 2
Grade of cardiac TEAE: Ejection fraction reduced [2]: 2
Grade of cardiac TEAE: Left ventricular dysfunction [2]: 2
Grade of cardiac TEAE: Supraventricular extrasystoles [2]: 1
Grade of cardiac TEAE: Ventricular wall movement diffusky diminshed [2]: 2
Grade of cardiac TEAE: nodal tachycardia [2]: 1
Grade of cardiac TEAE: T wave abnormal [3]: 1
Grade of cardiac TEAE: nodal tachycardia [3]: 1
Grade of cardiac TEAE: myocardial damage (Phase 2 study, patient 6 with Grade 3 QTc prolongation): 2
Grade of cardiac TEAE: Supraventricular extrasystoles [4]: 2
Grade of cardiac TEAE: T wave abnormal [4]: 2
Grade of cardiac TEAE: U wave abnormal [4]: 2
Grade of cardiac TEAE: T wave abnormal [5]: 1
Grade of cardiac TEAE: nodal tachycardia [5]: 1
Grade of cardiac TEAE: nodal tachycardia (Phase 2 study, patient 9 with Grade 3 QTc prolongation): 1
grade ≥ 3 TEAE diarrhea (phase 2): 12.5%
grade ≥ 3 TEAE hypertension (phase 2): 18.8%
grade ≥ 3 TEAE prolonged QT interval (phase 2): 31.3%
patients with at least one SAE (phase 2): 39.6%
patients with at least one TRAE (phase 2): 95.8%
patients with grade ≥3 TRAEs (phase 2): 62.5%
patients with treatment-related SAE (phase 2): 18.8%
≥ grade-3 prolonged QT interval with dose interruption (phase 2): 14.6%
≥ grade-3 prolonged QT interval with dose reduction (phase 2): 6.3%
